Measured values published in US20180318383A1, “PEPTIDE HAVING NEURONAL LOSS PREVENTION AND REGENERATION EFFECTS, AND COMPOSITION CONTAINING SAME” (GEMVAX & KAEL CO., LTD., priority 2015, published 2018).

How the values were obtained:
Tuj1 = Tuj1 expression in 3XTg-AD mice (western blotting, immunostaining); format: in vivo; conditions: hippocampus and whole brain; s.c. three times a week for two months; vs control and Donepezil, same amount
Method: (§1) To test the efficacy of PEP1 on AD, AD transgenic mice (3XTg-AD) were purchased from Jackson Laboratory. Genetic characteristics of the transgenic mice are as follows: B6; 129-Psen1tm1Mpm Tg(APPSwe, tauP301L)1Lfa/Mmjax. […] One week after mice were confirmed as pregnant, new mice were delivered and weaned for 3 weeks. Two weeks later, mature mice were obtained.
(§2) During the preliminary breeding and the entire period of the experiment, a temperature was maintained at 23±2° C. and a relative humidity was maintained at 60±10%, and then the mice were raised under a 12-hour dark/light cycle. Experimental animals were divided into five groups, and each group included 10 animals. The divided experimental groups are as follows. […]
(§3) The PEP1, physiological saline, donepezil and scramble peptide were subcutaneously injected at each concentration three times a week for two months from the age of 12 months, and then two months after the injection, cognitive/memory behavior tests (passive avoidance test and Y maze test) were performed to examine a degree of improvement in cognitive function and memory function. After the brain was extracted to separate the hippocampus, the amounts of amyloid beta in the hippocampus and the whole brain, and the amounts of an amyloid beta oligomer and NFT generated by tau hyperphosphorylation were determined by western blotting and immunostaining. […]

GFAP = GFAP expression in 3XTg-AD mice (western blotting); format: in vivo; conditions: hippocampus and whole brain; s.c. three times a week for two months; vs control and Donepezil, same amount
Method: as §1, §2, §3

Sequence: EARPALLTSRLRFIPK (homo sapiens) [PEP1, hTERT-derived peptide consisting of 16 amino acids, telomerase location [611-626]]
- Tuj1 (Tuj1): increased
- GFAP (GFAP): reduced
